Experimental findings from article PMC9143450, “Oxonitrogenated Derivatives of Eremophilans and Eudesmans: Antiproliferative and Anti-Trypanosoma cruzi Activity” (Molecules, 2022) are described below.

One data set concerns HeLa. The experiment in a line: Antiproliferative SRB assay (NCI protocol), HeLa. The class given is cell-based, human. The following applies: for GI50: Homo sapiens, HeLa (cervix), 48 h drug exposure, SRB, ± SD; for Selectivity index (SI) on tumor cells: CC50 splenocytes / GI50 HeLa. On the procedure: (§1) In vitro antiproliferative activity was evaluated using the protocol of the National Cancer Institute (NCI) after 48 h of drug exposure using the sulforhodamine B (SRB) assay.
(§2) The following human solid tumor cell lines were used in this study: HBL-100 (breast), HeLa (cervix), SW1573 (non-small cell lung), T-47D (breast), A549 (lung), and WiDr (colon). These cell lines were a kind gift from Prof. G. J. Peters (VU Medical Center, Amsterdam, The Netherlands). Cells were maintained in 25 cm^2 culture flasks in RPMI 1640 supplemented with 5% heat-inactivated fetal calf serum and 2 mM L-glutamine in a 37 °C, 5% CO2, 95% humidified air incubator. Exponentially growing cells were trypsinized and resuspended in antibiotic containing medium (100 units penicillin G and 0.1 mg of streptomycin per mL). Single cell suspensions displaying > 97% viability by trypan blue dye exclusion test were subsequently counted. After counting, dilutions were made to give the appropriate cell densities for inoculation onto 96-well microtiter plates. Cells were inoculated in a volume of 100 μL per well at densities of 5000 (WiDr and T-47D), and 2500 (A549, HeLa, SW1573 and HBL-100) cells per well, based on their doubling times.
(§3) Chemosensitivity tests were performed using the SRB assay of the NCI with slight modifications. Briefly, pure compounds were initially dissolved in DMSO at 400 times the desired final maximum test concentration. Control cells were exposed to an equivalent concentration of DMSO (0.25% v/v, negative control). Each agent was tested in triplicates at different dilutions in the range 1–100 μM. Drug treatment started on day 1 after plating. Drug incubation periods were 48 h, after which cells were precipitated with 25 μL of ice-cold 50% (w/v) trichloroacetic acid and fixed for 60 min at 4 °C. Then, the SRB assay was performed. The optical density (OD) of each well was measured at 530 nm, using BioTek’s PowerWave XS Absorbance Microplate Reader. Values were corrected for background OD from wells containing only culture medium. The percentage growth (PG) was calculated with respect to untreated control cells (C) at each level of drug concentrations based on the difference in OD at the start time (T0) and at the end of drug exposure (T), according to NCI formulas. Therefore, if T is greater than or equal to T0, the calculation is 100 × ((T − T0)/(C − T0)). If T is lower than T0, denoting cell death, the calculation is 100 × ((T − T0)/(T0)). The effect is defined as the growth percentage, where 50% growth inhibition (GI50) represents the concentration at which PG is +50. Based on these calculations, a PG value of 0 corresponds to the number of cells present at the beginning of drug exposure, while negative PG values denote net cell death.

The next data set concerns HBL-100. Kind of data set: Antiproliferative SRB assay (NCI protocol), HBL-100. The following applies: for GI50: Homo sapiens, HBL-100 (breast), 48 h drug exposure, SRB, ± SD; for Selectivity index (SI) on tumor cells: CC50 splenocytes / GI50 HBL-100. It counts as cell-based, human. On the procedure: as §1, §2, §3
For orientation: The SRB assay estimates cell density from bound dye.

A further data set has as its system T-47D. Kind of data set: Antiproliferative SRB assay (NCI protocol), T-47D. The class given is cell-based, human. The following applies: for GI50: Homo sapiens, T47D, T-47D (breast), 48 h drug exposure, SRB, ± SD; for Selectivity index (SI) on tumor cells: CC50 splenocytes / GI50 T-47D. On the procedure: as §1, §2, §3
Data set [1] concerns Trypanosoma cruzi epimastigotes (RA strain). Kind of data set: In vitro anti-Trypanosoma cruzi assay ((3H) thymidine uptake). It counts as cell-based. The following applies: for IC50: Trypanosoma cruzi, epimastigotes (RA strain), ± SD; for Selectivity Index on T. cruzi epimastigotes: CC50 splenocytes / IC50 epimastigotes. Here is the method: Trypanosoma cruzi epimastigotes (RA strain, from discrete typing unit (DTU) VI) were grown in a biphasic medium. Cultures were maintained by weekly passages at 28 °C [18].
The growth inhibition of T. cruzi epimastigotes was evaluated by a (^3H) thymidine uptake assay as previously described. Natural sesquiterpenes and derivatives were evaluated at concentrations ranging from 1.5 to 50 µg/mL. Benznidazole (Active Pharmaceutical Ingredient) was used as positive control (Elea). The percentage of inhibition was calculated as 100 = {((cpm of treated parasites)/(cpm of untreated parasites)) × 100}.
Figure 5 Effect of the natural sesquiterpene tessaric acid (1), ilicic acid (2), and ilicic alcohol (3) and their derivatives on T. cruzi. Epimastigotes (RA strain) were cultured in the presence of the compounds (50–1.5 µg/mL). Determinations were performed by triplicate. The results are expressed as the mean ± SD. (A) Effect of tessaric acid and derivatives on epimastigotes; (B) Effect of ilicic acid and derivatives on epimastigotes; (C) Effect of ilicic alcohol and derivatives on epimastigotes.

For a further data set, the system named is WiDr. Kind of data set: Antiproliferative SRB assay (NCI protocol), WiDr. The class given is cell-based, human. The following applies: for GI50: Homo sapiens, WiDr (colon), 48 h drug exposure, SRB, ± SD; for Selectivity index (SI) on tumor cells: CC50 splenocytes / GI50 WiDr. Here is the method:
as §1, §2, §3

In data set [2] the test system is HeLa, T-47D, WiDr, A549, HBL-100, and SW1573 cell lines. Kind of data set: Antiproliferative SRB assay, whole panel of human solid tumor cell lines. The class given is cell-based. The following applies: for GI50: Homo sapiens, minimal to maximal GI50 across the cell lines tested, 48 h, SRB, read-out: GI50 values, range over all cell lines tested. Here is the method: as §1, §2, §3

Data set [3] can be described thus: Cytotoxicity on primary cell culture (flow cytometry, PI). It counts as cell-based. The following applies: Balb/c, mouse, primary splenocytes (spleen cells), ± SD, read-out: Cytotoxic activity on spleen cells (CC50). Here is the method: (§4) The cytotoxicity of the natural sesquiterpenes (1–3) and derivatives (4–19) was determined on primary cell cultures (splenocytes obtained from Balb/c mouse). […] Derivatives of tessaric acid have shown an improvement in CC50 values in comparison with the natural sesquiterpene 1. […] All the derivatives synthesized from alcohol ilicic (compounds 10–19) were more toxic to mammalian cells than the natural compound (3).
(§5) The cytotoxicity of the compounds was evaluated on splenocytes obtained from Balb/c mouse (1.5 × 10^5) and incubated with different drug dilutions (5–200 μg/mL) as previously described. Cell death was determined by flow cytometry using a BD FACSaria II cytometer. Cells incubated only with drug vehicle were used as 100% viability control, and death percentage was calculated according to the following formula: Death%=1−(%PI^−cells)drug−treated/(%PI^−cells)100% viability control × 100
(§6) The concentration capable of causing 50% cell death (CC50) was determined using a non-linear regression approach.

The subject of data set [4] is splenocytes obtained from Balb/c mouse. The description is as above. The following applies: ± SD, read-out: Cytotoxic activity on spleen cells (CC50). It counts as cell-based. Here is the method:
as §4, §5, §6

A further data set has as its system SW1573. Kind of data set: Antiproliferative SRB assay (NCI protocol), SW1573. It counts as cell-based, human. The following applies: for GI50: Homo sapiens, SW1573 (non-small cell lung), 48 h drug exposure, SRB, ± SD; for Selectivity index (SI) on tumor cells: CC50 splenocytes / GI50 SW1573. Here is the method: as §1, §2, §3
The next data set concerns A549. Kind of data set: Antiproliferative SRB assay (NCI protocol), A549. It counts as cell-based, human. The following applies: for Selectivity index (SI) on tumor cells: CC50 splenocytes / GI50 A549; for GI50: Homo sapiens, A549 (lung), 48 h drug exposure, SRB, ± SD. Here is the method: as §1, §2, §3

Some results are limits rather than exact numbers.

In general, GI50 refers to the concentration that inhibits growth by half. One may read the IC50 as the point on the concentration scale where inhibition reaches its midpoint. A higher IC50 goes with weaker potency. As a reminder, the CC50 is the concentration at which the toxic effect on the cells reaches its halfway point. For `C=C(C(=O)O)[C@@H]1CCC2=CC(=O)C[C@H](C)[C@@]2(C)C1` [Compound 1, tessaric acid], the GI50 in the data set on HeLa, with HBL-100, with T-47D, with WiDr and with SW1573 was greater than 100 µM in each case. The “Trypanocidal activity (in words)” value in [1] (T. cruzi) is “nor trypanocidal activity”. Besides, the IC50 in data set [1] is greater than 201 µM. Further, the “Antiproliferative activity (in words)” value in data set [2] (solid tumor cell lines evaluated) is “did not show antiproliferative activity”. Further, the figures for the CC50 in data set [3] and in [4] were greater than 329 µM and 329 µM, respectively.
On to `C=C(C(=O)N(Cc1ccccc1)C(C)(C)C(=O)NCc1ccccc1)C1CCC2(C)CCCC(C)(O)C2C1` (centres unmarked) [Compound 13], for which the “Selectivity index (SI) on tumor cells” value was determined as 3.4 in the data set on HeLa; 2.1 in the data set with HBL-100; 2.5 with T-47D; 2.5 in the data set with WiDr; 5.2 with A549; 2.5 in the data set on SW1573. Moreover, the GI50 is 8 µM in the data set with HeLa; 13 µM in the data set with HBL-100; 11 µM in the data set with T-47D; 11 µM with WiDr; 5.3 to 14 µM in [2]; 5.3 µM with A549. In the data set on SW1573, this compound had a GI50 of 11 µM. Besides, the “Selectivity Index on T. cruzi epimastigotes” value in data set [1] amounted to 0.5. The compound also came in with an IC50 in data set [1] of 59.6 µM. In data set [3], the CC50 was 27.4 µM.
In the case of `C=C(C(=O)N(c1ccccc1)C(C)(C)C(=O)NC1CCCCC1)C1CCC2(C)CCCC(C)(O)C2C1` (centres unmarked) [Compound 14], the “Selectivity index (SI) on tumor cells” value was greater than 24 with HeLa, greater than 17 with T-47D and greater than 18.4 in the data set on A549. Further, the GI50 was 17 µM with HeLa; 20 µM in the data set on HBL-100; 23 µM in the data set with T-47D; 20 µM with WiDr; 17 to 64 µM in data set [2]; 22 µM in the data set with A549. Also, in the data set with SW1573, the GI50 worked out at 27 µM. This compound showed an IC50 in [1] greater than 101 µM. Also, in [2] (CC50 splenocytes / GI50 tumor cells, across cell lines), the “Selectivity index (IS) values, over the tumor cell lines evaluated” value is given as “greater than 15”. Moreover, the CC50 in [3] was greater than 405 µM.
For `C=C(C(=O)N(Cc1ccccc1)C(C)(C)C(=O)NC1CCCCC1)C1CCC2(C)CCCC(C)(O)C2C1` (centres unmarked) [Compound 15], the GI50 was 14 µM with HeLa; 19 µM in the data set with HBL-100; 19 µM with T-47D; 18 µM in the data set with WiDr; 5.3 to 14 µM in data set [2]; 13 µM with A549. In the data set on SW1573, the GI50 was found to be 17 µM. Moreover, the “Selectivity index (SI) on tumor cells” value came to 1.5 in the data set with HBL-100, 1.7 in the data set with T-47D, 1.7 in the data set on WiDr and 1.5 in the data set on SW1573. Moreover, in data set [1], the “Selectivity Index on T. cruzi epimastigotes” value stood at 1.0. The IC50 in data set [1] came to 22.4 µM. Moreover, the CC50 in data set [3] was determined as 21.5 µM.
